The target in one data set is T1, CDK5/p35 (Homo sapiens, UniProt Q00535).
T1 construct: purchased Upsate (Upstate)
The data set can be described thus: Kinase assay determining CDK5/p35 activity (selectivity panel). The format is biochemical. The conditions noted are these: 10 μM of compound, in comparison to DMSO (0% inhibition). The protocol: Kinase Assays Determining CDK2/CyclinA and CDK5/p35 Activity:
Kinase assays were performed as described by the manufacturers recommendations (Proqinase for CDK2/CyclinA and Upsate for CDK5/p35).
The activity of these protein kinases is depicted as % inhibition in the presence of 10 μM of compound in comparison to DMSO (0% inhibition).

The target in another data set is CDK1 (Homo sapiens, UniProt P06493). The data set can be described thus: General kinase assay, selectivity panel: CDK1. The class given is biochemical. The settings on record: 10 μM of compound, in comparison to DMSO (0% inhibition). The procedure, abridged:
(§1)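 Radiometric filter-binding kinase assay with [γ-33P]ATP plus substrate, 1 h at room temperature, stopped with EDTA. Phosphorylated substrate captured on phosphocellulose filters and counted by scintillation. Values are % inhibition at 10 µM compound relative to DMSO (0%).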

Another data set addresses EGFR (Homo sapiens, UniProt P00533). The data set can be described thus: General kinase assay, selectivity panel: EGFR. The format is biochemical. The conditions noted are these: 10 μM of compound, in comparison to DMSO (0% inhibition). A digest of the protocol: as §1
The target of a further data set is GSK-3β (Homo sapiens, UniProt P49841). The data set can be described thus: General kinase assay, selectivity panel: GSK-3β. The format is biochemical. The settings on record: 10 μM of compound, in comparison to DMSO (0% inhibition). The procedure, abridged:
as §1

The subject of a further data set is PDGFR. The data set can be described thus: General kinase assay, selectivity panel: PDGFR. The settings on record: 10 μM of compound, in comparison to DMSO (0% inhibition). The format is biochemical. The procedure, abridged:
as §1

In another data set the target is T2, CDK9 (Homo sapiens, UniProt P50750).
T2 construct: endogenous in cells; host or cells: PM1 cells (lysate)
The data set can be described thus: Affinity chromatography with immobilised compound, PM1 cell lysate, mass spectrometry: CDK9. The settings on record: compound coupled to ECH-Sepharose. The class given is binding. The protocol:
(§2) Affinity Chromatography Experiments:
(§3) Coupling to epoxy-groups: 500 μl drained epoxy-activated Sepharose 6B (Amersham Biosciences) equilibrated to 50% DMF/0.1M Na2CO3 were resuspended in 1 ml 20 mM Compound 102 or 20 mM Compound 103, respectively, dissolved in 50% DMF (Dimethylfomamid)/0.1 M Na2CO3. 5 μl 10M NaOH was added followed by incubation overnight at 30° C. with permanent shaking in the dark. After washing three times in 1 ml 50% DMF/0.1M Na2CO3 the beads were incubated in 1 ml 1M ethanolamine for 6 h at 30° C. with permanent shaking in the dark followed by the denoted washing steps: 50% DMF/0.1M Na2CO3, then H2O, then 0.1M NaHCO3 pH 8.0/0.5M NaCl followed by 0.1M NaAc pH 4.0/0.1M NaCl and finally three times in chromatography buffer (see below) containing 150 mM NaCl. As control matrix epoxy-activated Sepharose 6B was incubated with 1M ethanolamine and equally treated as described above. The beads were stored in 20% ethanol at 4° C. in the dark.
Carbodiimide coupling: ECH-Sepharose 4B (Amersham Biosciences) was washed according to the manufacturer's instructions and equilibrated to 50% DMF/50% ethanol. 2.5 ml drained beads were resuspended in 5 ml 15 mM Compound 102 or Compound 103, respectively, dissolved in 50% DMF/50% ethanol followed by drop by drop addition of 750 μl 1M 1-ethyl-3-(3-dimethylaminopropyl) carbodiimide hydrochloride (EDC), dissolved in 50% DMF/50% ethanol. […]

The test system of data set [1] is protein kinases of PM1 cell lysates. The data set can be described thus: Affinity chromatography with immobilised compound, PM1 cell lysate, mass spectrometry: additional targets. The class given is binding. The protocol: as §2, §3
Carbodiimide coupling: ECH-Sepharose 4B (Amersham Biosciences) was washed according to the manufacturer's instructions and equilibrated to 50% DMF/50% ethanol. 2.5 ml drained beads were resuspended in 5 ml 15 mM Compound 102 or Compound 103, respectively, dissolved in 50% DMF/50% ethanol followed by drop by drop addition of 750 μl 1M 1-ethyl-3-(3-dimethylaminopropyl) carbodiimide hydrochloride (EDC), dissolved in 50% DMF/50% ethanol. The suspension was incubated overnight at room temperature with permanent end-over-end rotation and washed three times with 15 ml 50% DMF/50% ethanol prior to the addition of 5 ml 33% DMF/33% ethanol/34% 1M ethanolamine pH 8.0 and 650 μl EDC. After 2 h incubation at room temperature with permanent end-over-end rotation, beads were washed three times with 15 ml 50% DMF/50% ethanol, twice with 15 ml 0.5M NaCl and once with 15 ml 20% ethanol. Control beads were incubated with 5 ml 1M ethanolamine instead of compound and treated equally as described above. The beads were stored in 20% ethanol at 4° C. in the dark.
Affinity Chromatography and Preparative Gel Electrophoresis.
1.25×10^9 PM1 cells were lysed in 15 ml buffer containing 50 mM HEPES pH 7.5, 400 mM NaCl, 0.5% Triton X-100, 1 mM EDTA, 1 mM EGTA, 3 mM MgCl2, 1 mM DTT plus additives (10 mM sodium fluoride, 1 mM orthovanadate, 10 μg/ml aprotinin, 10 μg/ml leupeptin, 1 mM PMSF), cleared by centrifugation and adjusted to 1M NaCl. The filtered lysate was loaded with a flow rate of 100 μl/min on a […] chromatography column containing 500 μl Compound 102 or Compound 103 matrix, respectively, equilibrated to chromatography buffer (20 mM HEPES pH 7.5, 0.25% Triton X-100, 1 mM EDTA, 1 mM EGTA) containing 1M NaCl. […]

A further data set has as its target Abl (Homo sapiens, UniProt P00519). The data set can be described thus: General kinase assay, selectivity panel: Abl. The format is biochemical. The settings on record: 10 μM of compound, in comparison to DMSO (0% inhibition). A digest of the protocol:
as §1

In data set [2] the test system is NFκB-dependent transcriptional activity. The data set can be described thus: NFκB-dependent transcriptional activity (NIH 3T3 75E 11/300D8 cell line). The format is cell-based. An excerpt:
NFκB-dependent Transcriptional Activity:
The used NIH 3T3 75E 11/300D8 cell line is described elsewhere (J. Eickhoff et al., Journal of Biological Chemistry, 2004, 279(10), 9642-9652).
It is known, that CDK9 regulates the NFκB-dependent transitional activity. With Compound 4, Compound 7 and Compound 30 studies were done, to evaluate their effect on NFκB-dependent transcriptional activity.

The test system of a further data set is HBV. The data set can be described thus: HBV replication assay in HepG2-2.2.15 cells. The class given is cell-based. The protocol: To test anti—HBV-activity of compounds the HBV-producing cell line HepG2-2.2.15 (M. A. Sells, PNAS 1987, 84, 1005-1009) was used. 1.0×10^4 cells were seeded in 96-well microtiter plates in DMEM medium supplemented with 10% FCS. After incubation at 37° C. in 5% CO2 atmosphere for 24 hours the medium was replaced with fresh medium containing the appropriately diluted compound. 3 days later medium was replaced by freshly prepared inhibitor-containing medium and the cells were incubated for further 3 days. Subsequently 200 μl lysis buffer (50 mM Tris-Cl 7.5; 1 mM EDTA 8.0; 0.5% NP40) per well was added. To remove cell debris and […], lysate was centrifuged (15000 rpm, 10 min, 4° C.). Cellular and viral RNA was removed by addition of 2 μl of RNase. 100 μl of the samples were spotted onto an uncharged nylon membrane pre-wetted with PBS (phosphate-buffered saline) using a 96 well-blotting chamber (MINIfold Dot-Blot, Schleicher&Schüll). After further washing with 200 μl PBS per well the membrane was treated twice with 0.5 M NaOH, 1.5 M NaCl (2 min) and 4 times with 0.5 M Tris 7.5, 3 M NaCl (1 min). The nucleic acids were fixed by UV-treatment and used for hybridisabon with a radioactive HBV-fragment prepared from the overgenome-length HBV-plasmid pT-HBV1.3 (L. G. Guidotti et al., Journal of Virology 1995., 69(10), 6158-6169).
The fixed membrane was pre-hybridized in a standard hybridisation buffer (50% formamide, 5×SSPE, 10×Denhards, 1% SDS, 100 μg/ml salmon sperm DNA) for at least 3 hours at 42° C. and hybridised overnight against the labelled HBV-fragment. The preparation of the HBV-fragment with the “Random primers DNA labelling system” (Invitrogen) was done according to the manufacturer's instructions. Hybridized filter were washed at room temperature with 2×SSC, at 62° C. with 2×SSC, 0.5% SDS and at 62° C. with 0.5×SSC, 0.5% SDS. Each washing step was carried out twice. The intensity of the HBV-DNA was quantified using a phosphoimager (Fuji). […] Absorbance was monitored at 570 nm and 600 nm wavelength.

The next data set deals with HepG2-2.2.15-cells. The format is cell-based. On the procedure: The fixed membrane was pre-hybridized in a standard hybridisation buffer (50% formamide, 5×SSPE, 10×Denhards, 1% SDS, 100 μg/ml salmon sperm DNA) for at least 3 hours at 42° C. and hybridised overnight against the labelled HBV-fragment. The preparation of the HBV-fragment with the “Random primers DNA labelling system” (Invitrogen) was done according to the manufacturer's instructions. Hybridized filter were washed at room temperature with 2×SSC, at 62° C. with 2×SSC, 0.5% SDS and at 62° C. with 0.5×SSC, 0.5% SDS. Each washing step was carried out twice. The intensity of the HBV-DNA was quantified using a phosphoimager (Fuji). To test the cell viability 0.5×10^4 HepG2-2.2.15-cells were seeded in 96-well-microtiter plates in DMEM medium supplemented with 10% fetal bovine serum. After incubation at 37° C. for 24 hours the medium was replaced by fresh compound-containing medium. 3 days later medium was replaced again by freshly prepared medium containing the inhibitor and the cells were incubated for further 3 days at 37° C. After the incubation period 1/10 volume of Alamar Blue (Serotec) solution containing a growth dependant indicator was added and the cells were incubated for 3 h at 37° C. Absorbance was monitored at 570 nm and 600 nm wavelength.

[3] abbreviates: compound coupled to ECH-Sepharose, mass spectrometry.

Data on 3 compounds can be found in patent US8084457B2, “Pharmaceutically active 4,6-disubstituted aminopyrimidine derivatives as modulators of protein kinases” (Lead Discovery Center GmbH, priority 2003, dated 2011).

The structures appear in SMILES notation.

CDK1, sequence (P06493 whole entry, species assumed): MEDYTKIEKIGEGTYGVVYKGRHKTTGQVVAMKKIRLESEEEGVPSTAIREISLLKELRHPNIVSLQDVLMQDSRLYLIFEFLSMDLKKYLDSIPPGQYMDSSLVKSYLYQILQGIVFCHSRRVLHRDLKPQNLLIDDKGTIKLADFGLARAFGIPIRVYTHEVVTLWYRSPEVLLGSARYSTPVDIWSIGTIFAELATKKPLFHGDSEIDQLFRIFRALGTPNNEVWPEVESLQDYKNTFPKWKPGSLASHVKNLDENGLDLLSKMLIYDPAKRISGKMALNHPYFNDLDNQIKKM
CDK1, sequence (P14635 whole entry partner, species assumed): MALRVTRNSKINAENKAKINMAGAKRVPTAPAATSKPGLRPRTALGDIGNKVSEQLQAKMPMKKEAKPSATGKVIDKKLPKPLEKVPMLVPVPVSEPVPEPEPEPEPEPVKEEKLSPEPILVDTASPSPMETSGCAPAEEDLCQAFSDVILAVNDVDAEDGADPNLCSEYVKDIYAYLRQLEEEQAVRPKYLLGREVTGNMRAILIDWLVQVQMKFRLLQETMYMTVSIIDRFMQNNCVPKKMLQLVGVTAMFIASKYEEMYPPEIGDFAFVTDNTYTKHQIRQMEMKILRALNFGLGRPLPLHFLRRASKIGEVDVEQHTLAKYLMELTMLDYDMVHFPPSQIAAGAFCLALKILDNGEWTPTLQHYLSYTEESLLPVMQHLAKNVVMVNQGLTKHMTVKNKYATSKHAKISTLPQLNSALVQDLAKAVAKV
T1 sequence (Q00535 whole entry): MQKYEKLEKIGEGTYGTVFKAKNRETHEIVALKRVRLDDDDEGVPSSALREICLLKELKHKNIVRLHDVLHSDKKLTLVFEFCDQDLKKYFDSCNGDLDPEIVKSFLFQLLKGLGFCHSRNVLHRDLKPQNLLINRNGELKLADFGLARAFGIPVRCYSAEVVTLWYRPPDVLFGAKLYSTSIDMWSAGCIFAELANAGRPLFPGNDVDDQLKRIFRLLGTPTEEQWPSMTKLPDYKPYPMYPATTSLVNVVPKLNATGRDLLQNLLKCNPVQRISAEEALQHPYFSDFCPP
T1 sequence (Q15078 whole entry partner): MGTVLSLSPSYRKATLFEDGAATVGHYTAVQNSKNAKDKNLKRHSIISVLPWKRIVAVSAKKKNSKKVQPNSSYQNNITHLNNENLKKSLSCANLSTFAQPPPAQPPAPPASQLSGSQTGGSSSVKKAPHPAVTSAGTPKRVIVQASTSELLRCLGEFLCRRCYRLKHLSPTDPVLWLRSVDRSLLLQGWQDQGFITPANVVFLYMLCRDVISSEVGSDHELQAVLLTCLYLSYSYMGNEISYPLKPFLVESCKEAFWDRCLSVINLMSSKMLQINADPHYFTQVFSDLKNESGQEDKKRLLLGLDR
EGFR, sequence (P00533 25-1210, species assumed): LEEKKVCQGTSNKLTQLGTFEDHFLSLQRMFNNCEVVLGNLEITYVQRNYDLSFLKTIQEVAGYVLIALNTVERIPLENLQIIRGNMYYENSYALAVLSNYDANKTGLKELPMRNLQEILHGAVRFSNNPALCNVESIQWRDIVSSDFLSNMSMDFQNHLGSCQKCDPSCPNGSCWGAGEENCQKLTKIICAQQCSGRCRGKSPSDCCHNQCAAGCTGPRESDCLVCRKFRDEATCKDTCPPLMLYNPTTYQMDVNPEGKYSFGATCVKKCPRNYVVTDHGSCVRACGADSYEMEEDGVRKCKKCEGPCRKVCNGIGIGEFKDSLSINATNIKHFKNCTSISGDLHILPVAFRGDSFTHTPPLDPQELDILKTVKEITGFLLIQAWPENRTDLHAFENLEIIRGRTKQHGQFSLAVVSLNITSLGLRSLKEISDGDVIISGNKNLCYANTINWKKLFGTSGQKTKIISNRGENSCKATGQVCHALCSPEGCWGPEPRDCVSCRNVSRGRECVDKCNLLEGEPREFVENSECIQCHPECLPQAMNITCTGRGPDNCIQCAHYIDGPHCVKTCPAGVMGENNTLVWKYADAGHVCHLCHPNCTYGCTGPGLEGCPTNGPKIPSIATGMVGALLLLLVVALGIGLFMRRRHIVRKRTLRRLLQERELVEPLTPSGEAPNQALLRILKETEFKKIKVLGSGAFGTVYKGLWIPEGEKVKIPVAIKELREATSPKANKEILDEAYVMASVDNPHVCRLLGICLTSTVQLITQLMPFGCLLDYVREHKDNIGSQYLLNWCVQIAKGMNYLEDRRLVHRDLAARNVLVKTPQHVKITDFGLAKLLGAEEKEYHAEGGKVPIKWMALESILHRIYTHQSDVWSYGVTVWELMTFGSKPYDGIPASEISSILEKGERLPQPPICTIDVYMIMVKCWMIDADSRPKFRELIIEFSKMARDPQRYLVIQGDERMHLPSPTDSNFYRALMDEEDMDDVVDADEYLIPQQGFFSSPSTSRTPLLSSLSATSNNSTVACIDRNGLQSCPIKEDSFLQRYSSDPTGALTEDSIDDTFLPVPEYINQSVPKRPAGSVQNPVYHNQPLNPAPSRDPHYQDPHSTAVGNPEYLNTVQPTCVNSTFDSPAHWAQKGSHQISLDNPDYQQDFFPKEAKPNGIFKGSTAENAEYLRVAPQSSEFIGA
T2 sequence (P50750 whole entry): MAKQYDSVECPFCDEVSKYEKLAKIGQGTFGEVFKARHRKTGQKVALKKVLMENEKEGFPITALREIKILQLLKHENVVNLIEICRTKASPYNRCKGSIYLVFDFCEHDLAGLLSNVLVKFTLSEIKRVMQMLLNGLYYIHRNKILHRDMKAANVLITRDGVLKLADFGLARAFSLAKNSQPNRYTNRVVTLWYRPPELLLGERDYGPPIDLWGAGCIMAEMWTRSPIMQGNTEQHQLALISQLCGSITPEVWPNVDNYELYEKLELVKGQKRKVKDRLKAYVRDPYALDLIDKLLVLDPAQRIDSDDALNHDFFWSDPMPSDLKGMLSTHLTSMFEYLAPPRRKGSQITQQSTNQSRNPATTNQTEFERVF
GSK-3β, sequence (P49841 whole entry, species assumed): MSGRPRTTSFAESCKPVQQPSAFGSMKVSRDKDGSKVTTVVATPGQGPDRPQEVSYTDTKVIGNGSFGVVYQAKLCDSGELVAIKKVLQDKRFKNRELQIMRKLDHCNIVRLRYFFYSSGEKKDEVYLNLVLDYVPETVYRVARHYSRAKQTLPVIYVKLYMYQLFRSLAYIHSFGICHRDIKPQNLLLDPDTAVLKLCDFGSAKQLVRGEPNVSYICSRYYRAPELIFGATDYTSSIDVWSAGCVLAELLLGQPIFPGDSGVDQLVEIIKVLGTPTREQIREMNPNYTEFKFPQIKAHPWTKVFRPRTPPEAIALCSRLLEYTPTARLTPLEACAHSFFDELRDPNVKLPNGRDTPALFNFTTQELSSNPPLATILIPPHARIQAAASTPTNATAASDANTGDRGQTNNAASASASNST
Abl, sequence (P00519 whole entry, species assumed): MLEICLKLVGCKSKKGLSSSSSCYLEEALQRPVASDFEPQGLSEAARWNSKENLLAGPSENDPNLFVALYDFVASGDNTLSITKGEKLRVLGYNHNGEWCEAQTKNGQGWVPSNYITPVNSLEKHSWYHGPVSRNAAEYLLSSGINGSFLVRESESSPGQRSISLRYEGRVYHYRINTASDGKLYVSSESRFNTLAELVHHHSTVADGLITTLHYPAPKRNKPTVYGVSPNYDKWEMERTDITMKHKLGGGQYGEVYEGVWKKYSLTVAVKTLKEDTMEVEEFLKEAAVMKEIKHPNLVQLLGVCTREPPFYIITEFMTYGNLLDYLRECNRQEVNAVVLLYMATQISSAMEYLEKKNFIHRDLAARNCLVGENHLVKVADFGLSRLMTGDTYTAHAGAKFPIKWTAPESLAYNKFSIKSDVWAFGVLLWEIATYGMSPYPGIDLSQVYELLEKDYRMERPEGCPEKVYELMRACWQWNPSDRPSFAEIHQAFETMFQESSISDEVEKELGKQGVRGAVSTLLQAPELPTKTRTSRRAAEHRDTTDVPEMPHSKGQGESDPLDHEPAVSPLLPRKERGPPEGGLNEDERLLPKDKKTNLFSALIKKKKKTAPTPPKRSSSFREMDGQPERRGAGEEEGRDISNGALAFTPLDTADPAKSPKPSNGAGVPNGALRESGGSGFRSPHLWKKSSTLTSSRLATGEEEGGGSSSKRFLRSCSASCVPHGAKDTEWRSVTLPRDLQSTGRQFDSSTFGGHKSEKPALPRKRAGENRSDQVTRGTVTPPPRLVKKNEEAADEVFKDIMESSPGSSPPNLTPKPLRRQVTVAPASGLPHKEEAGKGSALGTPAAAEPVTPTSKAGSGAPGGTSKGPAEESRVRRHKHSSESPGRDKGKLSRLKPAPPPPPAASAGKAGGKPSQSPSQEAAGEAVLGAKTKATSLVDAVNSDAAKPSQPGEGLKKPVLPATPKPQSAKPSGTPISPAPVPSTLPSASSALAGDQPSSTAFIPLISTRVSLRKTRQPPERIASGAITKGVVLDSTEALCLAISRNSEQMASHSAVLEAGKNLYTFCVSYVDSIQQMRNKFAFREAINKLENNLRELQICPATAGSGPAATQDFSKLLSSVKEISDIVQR

Consider `NCCCOc1ccccc1-c1cc(Nc2ccc(NC(=O)c3ccc(N)cc3)cc2)ncn1` [Compound 103, 4-Amino-N-(4-{6-[2-(3-amino-propoxy)phenyl]-pyrimidin-4-ylamino}-phenyl)-benzamide], for which the inhibition at 10 µM on CDK5/p35 is 50 to 80%; at CDK1, 50 to 80%; on EGFR, > 80%; against GSK-3β, 50 to 80%. Besides, in the data set with PDGFR, the “PDGFR (% inhibition)” value was “c (inhibition between 50 and 30%: c)”. The “isolation of CDK9 out of crude PM1 cell lysates by affinity medium” value at CDK9 is “able to isolate CDK9”. In data set [1] (LCMS analysis of eluates), the “protein kinases in eluates: CaMK2β, GSK3α, CDK2, CrkRS, receptor similar to FGFR-3” value was “detected”. For the same compound, in data set [1] (setting [3]), the “additional targets bound: GSK3β, c-Src tyrosine kinase (CSK)” value is “specifically bound”.

For `COc1ccccc1-c1cc(Nc2ccc(NC(=O)CCN)cc2)ncn1` [Compound 102, 3-Amino-N-{4-[6-(2-methoxy-phenyl)-pyrimidin-4-ylamino]-phenyl}-propionamide], the inhibition at 10 µM against CDK5/p35 is > 80%; against Abl, 30 to 50%; against CDK1 it was 50 to 80%; against EGFR, > 80%. Further, the “PDGFR (% inhibition)” value with PDGFR is “b (inhibition between 80 and 50%: b)”. On CDK9, the “isolation of CDK9 out of crude PM1 cell lysates by affinity medium” value is “able to isolate CDK9”. Moreover, the “protein kinases in eluates: CaMK2β, MLK (MRK-alpha), yes, cdc2-like protein kinase (CDC2L5), CrkRS, MAK” value in [1] (LCMS analysis of eluates) was “identified”. In addition, the “additional targets bound: CaMK2γ, CaMK2δ, CDK2, MRK-beta (ZAK)” value in [1] (setting [3]) is recorded as “specifically bound”.

As for `c1ccc(COc2ccccc2-c2cc(NCCc3ccncc3)ncn2)cc1` [Compound 7], the “inhibition of NFκB (in words, compared with Compound 30)” value in data set [2] is given as “less effectively”. The “HBV replication (in words)” value in the data set with HBV is reported as “inhibited replication”. Besides, in the data set with HepG2-2.2.15-cells, the “viability of the cells in the HBV replication assay” value is listed as “without affecting viability”.

Usually inhibition stands for the share of the control response that was lost under treatment. A high value points to a response far below the control.
